Results as given in paper PMC5471438, “Linaclotide activates guanylate cyclase‐C/cGMP/protein kinase‐II‐dependent trafficking of CFTR in the intestine” (Physiological Reports, 2017).
“Also recorded” adds a separate entry of the source.

Assays:
CFTR [1] = assay: Surface biotinylation of CFTR in C2BBe cells; format: cell-based, human; conditions: linaclotide 1 μmol/L and 3.27 μmol/L, 30 min
human colonic mucosa = assay: Transepithelial short circuit current (Isc) across human ascending colonic mucosa, Ussing chamber; conditions: human ascending colon, linaclotide 30 nmol/L and 1000 nmol/L, apical, pH 7.4, 37°C; mean ± SEM (n = 12)
cGKII (PKGII) [2] = assay: VASP Ser239 phosphorylation in T84 cells, Western blot; format: cell-based, human; conditions: linaclotide 1 and 3.27 μmol/L, 30 min, 8Br‐cGMP 0.2 and 1 mmol/L positive control
Protocol: (§1) C2BBe or T84 cells were homogenized in TGH lysis buffer [25 mmol/L HEPES, 10% (vol/vol) glycerol, 1% (vol/vol) Triton‐ × 100, pH 7.4] containing protease inhibitors (10 nmol/L iodoacetamide, 1 mmol/L phenylmethylsulfonyl fluoride (PMSF), 2 μg/mL leupeptin) for 30 min on ice. Homogenates were solubilized, subject to centrifugation at 13,200 g for 15 min at 4°C, and cleared supernatants were recovered. Protein concentration of the supernatant was determined with Coomassie Protein Assay Reagent (Pierce) and samples prepared and analyzed as described (Kravtsov et al. 2016). Quantification of surface‐labeled proteins was performed with Quantity One image analysis software.
(§2) VASP was originally characterized as a substrate for both PKG (cGMP‐dependent kinase) and PKA (cAMP‐dependent kinase). […] To determine linaclotide‐induced activation of cGKII, we determined the phosphorylation of VASP^Ser239 30 min following treatment either with vehicle or linaclotide (1 μmol/L and 3.27 μmol/L; the 3.27 μmol/L concentration is equivalent to the 5 μg dose of linaclotide that was used in vivo in the rat jejunum loop). The membrane permeant cGMP analog, 8 Br‐cGMP (0.2 mmol/L, 1 mmol/L), was used as a positive control.

CFTR [3] = assay: Surface biotinylation of CFTR in T84 cells; format: cell-based, human; conditions: linaclotide 1 μmol/L and 3.27 μmol/L, 30 min
Caco‐2 cell line = conditions: human colonic Caco‐2 cell line; ref Castro et al. 2013; Silos‐Santiago et al. 2013; cited from earlier work
Excerpt: (§3) While the increase in intracellular cGMP following ligand activation of GC‐C is well established, the efflux of cGMP from enterocytes is not well studied.

rat colonic mucosa = conditions: apical and basolateral membrane, ref Silos‐Santiago et al. 2013, Tchernychev et al. 2015; cited from earlier work
Excerpt: as §3

[4] = via extracellular cGMP; ref Castro et al. 2013; Silos‐Santiago et al. 2013; Hannig et al. 2014; cited from earlier work
Excerpt: as §3

mouse colonic mucosa = conditions: apical and basolateral membrane, ref Silos‐Santiago et al. 2013, Tchernychev et al. 2015; cited from earlier work
Excerpt: as §3

cGKII (PKGII) [5] = assay: VASP Ser239 phosphorylation in C2BBe cells, Western blot; format: cell-based, human; conditions: linaclotide 1 and 3.27 μmol/L, 30 min, 8Br‐cGMP 0.2 and 1 mmol/L positive control
Protocol: as §1, §2

[6] = Stability of linaclotide in human mucosa tissue supernatants by LC-MS; conditions: human intestinal mucosa supernatants, 1 μmol/L, 30 and 60 min incubation, 37°C
rat jejunum = assay: Fluid secretion in ligated rat jejunal loops in vivo; design: species or system rat (Sprague–Dawley); conditions: linaclotide 5 μg/mL/loop, 30 min, vs saline (1 mL)
Protocol: All animal studies were approved by the Institutional Animal Care and Use Committee of Yale University School of Medicine. Briefly, male Sprague–Dawley rats (200–250 g, Charles River Laboratories) were fasted overnight with access to drinking water ad libitum. Anesthesia was performed with Inactin® (Thiobutabarbital sodium salt hydrate, 120 mg/kg/i.p.). The jejunal, ileal, and proximal colonic loops (5 cm length) were prepared using sutures. Loops were instilled either with normal saline (pH7.4, 37°C) (1 mL/loop) or linaclotide (5 μg/mL/loop) for 30 min. At the end of the study, animals were euthanized with Inactin (200 mg/kg/i.p.).
The guanylate cyclase‐C (GC‐C) agonist linaclotide stimulates the production and accumulation of intracellular cGMP, which acts as a second messenger to enhance fluid secretion in the intestine (Schulz et al. 1990; Busby et al. 2013). We first tested whether linaclotide can enhance fluid secretion in vivo in the rat small intestine. Following anesthesia and laparotomy, intestinal loops were created in rat jejunum and injected either with vehicle (saline, 1 mL) or linaclotide (5 μg/1 mL). […] In this study, we examined whether linaclotide treatment also stimulates fluid secretion by recruiting CFTR to the apical surface of rat jejunum enterocytes in vivo. […]

CFTR [7] = assay: Surface biotinylation of CFTR in rat jejunum enterocytes after in vivo loop treatment; conditions: linaclotide 5 μg/mL/loop, 30 min in vivo, vs saline and untreated, mean ± SEM (n = 4)
GC‐C/cGMP pathway = conditions: modulated by MRP4; ref Tchernychev et al. 2015; cited from earlier work
Excerpt: The cystic fibrosis transmembrane conductance regulator (CFTR) is a cyclic adenosine monophosphate (cAMP) and cGMP‐regulated anion‐selective channel that is expressed on the apical domain of intestinal epithelial cells where it serves as the main conductive pathway for Cl^− and HCO3 ^− ions transported across the membrane into the lumen (Riordan et al. 1989; Anderson et al. 1991; Vaandrager et al. 1997).

[8] = tested on: rat proximal colonic mucosa; assay: Transepithelial short circuit current (Isc) across rat proximal colonic mucosa, Ussing chamber; design: species or system rat (Sprague–Dawley); conditions: rat proximal colonic mucosa, linaclotide 6 nmol/L and 100 nmol/L, apical; mean ± SEM (n = 4)
GC‐C = assay: cGMP in human intestinal mucosa tissues and supernatants; conditions: human jejunum, ileum, ascending colon mucosa, linaclotide 1 μmol/L, 30 and 60 min, 37°C, IBMX 1 mmol/L, EIA, mean ± SD (n = 4)
C2BBe cells = assay: cGMP synthesis in C2BBe cells; format: cell-based, human
[9] = tested on: rat proximal colonic mucosa; design: method as in 2 sources, one per row (each row's own in cited_ref): ref Tchernychev et al. 2015 ||| ref Vaandrager et al. 1997; conditions: rat proximal colon / colonic epithelium; ref Tchernychev et al. 2015; read-out: EC50 for transepithelial ion current; cited from earlier work

## linaclotide
CFTR [1]
  CFTR recruitment to cell surface: increased cell surface CFTR levels; also recorded: robust recruitment of CFTR to the apical surface; also recorded: robust increase in surface levels of CFTR compared to untreated control cells; also recorded: higher surface CFTR levels in C2BBe cells compared to T84 cells
Human colonic mucosa
  linaclotide-induced transepithelial ion current (Isc): induced transepithelial ion current at concentrations of 30 nmol/L and 1000 nmol/L
cGKII (PKGII) [2]
  phosphorylation of VASP Ser239: more robust phosphorylation of VASP^Ser239 compared to 8Br‐cGMP; also recorded: higher levels of VASP^Ser239 phosphorylation compared to the lower concentration
cGKII (PKGII) [2]; listed as Linaclotide
  phosphorylation of VASP Ser239: more strongly enhanced phosphorylation of VASP^Ser239 compared to the cGMP analog 8‐Br‐cGMP
CFTR [3]
  CFTR recruitment to cell surface: increased cell surface CFTR levels; also recorded: robust recruitment of CFTR to the apical surface; also recorded: robust increase in surface levels of CFTR compared to untreated control cells
Caco‐2 cell line
  cGMP efflux: induce cGMP efflux
Rat colonic mucosa
  cGMP efflux: induce cGMP efflux
[4]
  antinociceptive effect: antinociceptive effects in several models of colonic hypersensitivity
Mouse colonic mucosa
  cGMP efflux: induce cGMP efflux
cGKII (PKGII) [5]
  phosphorylation of VASP Ser239: more robust phosphorylation of VASP^Ser239 compared to 8Br‐cGMP; also recorded: higher levels of VASP^Ser239 phosphorylation compared to the lower concentration
cGKII (PKGII) [5]; listed as Linaclotide
  phosphorylation of VASP Ser239: more strongly enhanced phosphorylation of VASP^Ser239 compared to the cGMP analog 8‐Br‐cGMP
[6]
  stability of linaclotide in tissue supernatants: stable under these conditions
Rat jejunum
  fluid secretion in jejunal loop: robust fluid secretion; also recorded: distended and tightly filled with fluid; also recorded: robust increase in fluid accumulation in jejunum loops
CFTR [7]
  surface CFTR (surface biotinylation, Western blot): highest levels of surface CFTR; also recorded: robust increase in surface CFTR when compared to the untreated intestine
GC‐C/cGMP pathway
  transepithelial electrolyte secretion: increased transepithelial electrolyte secretion across the mucosa
[8]
  linaclotide-induced transepithelial ion current (Isc): induced a transepithelial ion current at both concentrations
GC‐C
  cGMP level in supernatant (extracellular): greater after 30 min, compared to levels measured after 60 min
  cGMP level in tissue (intracellular): greater after 30 min, compared to levels measured after 60 min
GC‐C; listed as Linaclotide
  cGMP level in supernatant (extracellular): increased levels of both intracellular and extracellular cGMP
  cGMP level in tissue (intracellular): increased levels of both intracellular and extracellular cGMP
C2BBe cells
  EC80 for cGMP synthesis (approximate): ~1000 nM
  EC100 for cGMP synthesis (approximate): ~3 µmol/L
C2BBe cells; IBMX 1 mmol/L 10 min, linaclotide 0.001–10 μmol/L 30 min, 37°C, pH 7, cGMP in supernatants by LC/MS/MS, n = 4
  EC50: 523 nM
C2BBe cells; linaclotide 0.001–10 μmol/L, 30 min, IBMX 1 mmol/L
  cGMP synthesis: concentration dependently stimulated cGMP synthesis
[9]
  EC50: 9.2 nM
